Measured values published in PubChem BioAssay (NCI).
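Where inhibition never reached the appropriate level, the endpoint shown equals the highest concentration tested. Otherwise, values were interpolated linearly from a five-concentration, 48-hour dose response in 96-well plates. TGI is the concentration that stops growth completely.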

How the values were obtained:
Assay in all cases: NCI anticancer screen, dose series, 48 h
[1] = tested on: EKVX NSCLC
[2] = tested on: HCT-116 colon
[3] = tested on: HOP-62 NSCLC
[4] = tested on: HOP-92 NSCLC
[5] = tested on: NCI-H460 lung
[6] = tested on: OVCAR-8 ovarian
[7] = tested on: SK-MEL-2 melanoma
[8] = tested on: SK-MEL-28 melanoma
[9] = tested on: A498 renal
[10] = tested on: CAKI-1 renal

| SMILES | TGI [1] [µM] | TGI [2] [µM] | TGI [3] [µM] | TGI [4] [µM] | TGI [5] [µM] | TGI [6] [µM] | TGI [7] [µM] | TGI [8] [µM] | TGI [9] [µM] | TGI [10] [µM] |
| --- | --- | --- | --- | --- | --- | --- | --- | --- | --- | --- |
| Nc1nc(NCCOCP(=O)(O)O)c([N+](=O)[O-])c(=O)[nH]1 | > 100 | > 100 | > 100 | > 100 | > 100 | > 100 | > 100 | > 100 | – | – |
| CSc1cc(Cl)c(C)cc1S(=O)(=O)NC(=O)NNc1ccc(F)cc1 | > 100 | > 100 | > 100 | – | > 100 | > 100 | > 100 | > 100 | > 100 | > 100 |
| COc1cc(C2S/C(=C/c3ccccc3)C(=O)N2Cc2ccccc2)cc(OC)c1OC (stereo not given) | > 100 | 47 | > 100 | > 100 | – | > 100 | > 100 | > 100 | > 100 | > 100 |
| Cc1ccc(S(=O)(=O)N2CCC[C@@H]2C(=O)O[C@@H]2CCC3CC=CC32)cc1 (stereo not given in full) | > 100 | > 100 | 97.2 | 44 | > 100 | > 100 | – | > 100 | 81.1 | – |
| COC(=O)[C@H](CC(C)C)NC(=O)[C@H](Cc1ccccc1)N1CC2C=CC1C2 (stereo not given in full) | > 100 | – | > 100 | > 100 | > 100 | > 100 | > 100 | > 100 | > 100 | > 100 |
| CN(c1ccccc1)S(=O)(=O)c1ccc([N+](=O)[O-])cc1 | > 100 | > 100 | > 100 | – | > 100 | > 100 | > 100 | > 100 | – | > 100 |
| CC(C)OP(=S)(NC(=S)c1ccccc1)OC(C)C | > 100 | > 100 | – | > 100 | > 100 | > 100 | > 100 | > 100 | > 100 | > 100 |
| COc1cccc2c1OC1Sc3ccccc3-c3nn(-c4ccccc4)c-2c31 (stereo not given) | > 100 | > 100 | > 100 | > 100 | > 100 | > 100 | > 100 | > 100 | > 100 | – |
| O=C(Cc1nc2ccc(C(=O)c3ccccc3)cc2[nH]c1=O)C(=O)Nc1nc2ccccc2[nH]1 | > 100 | > 100 | > 100 | 91.8 | > 100 | > 100 | – | > 100 | – | > 100 |
| CC(=O)OCC1OC(n2cnc3nc(Br)[nH]c(=O)c32)C(OC(C)=O)C1OC(C)=O (stereo not given) | > 100 | > 100 | > 100 | > 100 | > 100 | > 100 | > 100 | – | > 100 | > 100 |
| N#Cc1c(N)oc(-c2ccc([N+](=O)[O-])cc2)c1C#N | 59.6 | > 100 | 73.5 | 62.9 | – | 52.2 | 64.2 | > 100 | 53.5 | 54.7 |
| Fc1ccc(-c2sc(-c3ccsc3)cc2Cc2ccsc2)cc1 | > 10 | – | > 10 | > 10 | – | > 10 | – | > 10 | – | > 10 |
| Cc1c(Cc2ccccc2)n(C(C)OCCN(OC(=O)Oc2ccccc2)C(=O)Oc2ccccc2)c(=O)[nH]c1=O (stereo not given) | 30.4 | 41.6 | 36.7 | 29.7 | 32.7 | 34.7 | 37.2 | 42 | – | 33.9 |
| Cn1c(-c2ccc(-c3cc(-c4cccs4)c(-c4cccs4)n3C)cc2)cc(-c2cccs2)c1-c1cccs1 | > 100 | > 100 | > 100 | – | > 100 | > 100 | > 100 | > 100 | – | > 100 |
| Nn1c(Nc2ccc(S(N)(=O)=O)cc2)nnc(/C=C/c2c(O)ccc3ccccc23)c1=O | 34.2 | 34.1 | 56.7 | – | 96.2 | 22.6 | > 100 | 53.5 | 73.6 | 49.6 |
| CCOC(=O)/C=C/C(=O)O/C=C/[N+](=O)[O-] | > 100 | > 100 | > 100 | > 100 | > 100 | > 100 | – | – | > 100 | 78.1 |
| CC#C[C@]1(O)CCC2[C@@H]3CCC4=CC(=O)CCC4=C3[C@@H](c3ccc(N(C)C)cc3)C[C@@]21C (stereo not given in full) | 53 | 39.6 | 50.3 | 8.55 | 28.3 | > 100 | – | 29.5 | – | 33 |
| CC(C)(C)N/N=C(\C(=O)Nc1cccc(Cl)c1)C1C(=O)Nc2ccccc2S1=O (stereo not given) | > 100 | – | > 100 | > 100 | > 100 | > 100 | > 100 | > 100 | – | > 100 |
| COc1ccc2c(c1)CC[C@@H]1C2CC[C@]2(C)C(=O)N(CCN(C)C)C(=O)CC12 (stereo not given in full) | > 100 | > 100 | > 100 | > 100 | > 100 | > 100 | – | > 100 | > 100 | > 100 |
| CSc1ncc2c(n1)-c1ccccc1OC2N1CCOCC1 (stereo not given) | > 100 | > 100 | – | > 100 | > 100 | > 100 | > 100 | – | 56.7 | > 100 |
| O=c1[nH]c2ccccc2c(O)c1Cc1ccccc1 | > 100 | > 100 | > 100 | > 100 | > 100 | > 100 | – | > 100 | > 100 | > 100 |
| Cc1cc2nc3c(C#N)c4c(c(Nc5ccc(F)cc5)n3c2cc1C)CCC4 | > 100 | > 100 | > 100 | – | > 100 | > 100 | > 100 | > 100 | – | > 100 |
| Clc1cc(-c2ccccc2)nc(Nc2nc3ccccc3[nH]2)n1 | 49.5 | > 100 | – | 5.25 | 93.7 | 54.2 | – | – | 98.3 | 3.95 |
| CCOC(=O)c1c(NS(=O)(=O)c2ccc(C)cc2)sc2c1CCCC2 | 98.7 | 73 | 60.2 | – | 78.8 | > 100 | 54.8 | – | > 100 | > 100 |
